Changes are numbered by the printed parent chain.
How the values were obtained:
FXR L287T = target: T1, FXR L287T (Homo sapiens, UniProt Q96RI1, L301T); experiment: Reporter gene analysis with FXR point mutant L287T in COS-7 cells; type: cell-based; details: COS-7, EcRE reporter, vs wild-type FXR, FIG. 5
T1 construct: the expression plasmid expressing full-length FXR (wt) or with mutations at the corresponding sites; expressed in transfected cells; host or cells: COS-7
T1 sequence (Q96RI1 1-472 isoform Q96RI1-2 L287T): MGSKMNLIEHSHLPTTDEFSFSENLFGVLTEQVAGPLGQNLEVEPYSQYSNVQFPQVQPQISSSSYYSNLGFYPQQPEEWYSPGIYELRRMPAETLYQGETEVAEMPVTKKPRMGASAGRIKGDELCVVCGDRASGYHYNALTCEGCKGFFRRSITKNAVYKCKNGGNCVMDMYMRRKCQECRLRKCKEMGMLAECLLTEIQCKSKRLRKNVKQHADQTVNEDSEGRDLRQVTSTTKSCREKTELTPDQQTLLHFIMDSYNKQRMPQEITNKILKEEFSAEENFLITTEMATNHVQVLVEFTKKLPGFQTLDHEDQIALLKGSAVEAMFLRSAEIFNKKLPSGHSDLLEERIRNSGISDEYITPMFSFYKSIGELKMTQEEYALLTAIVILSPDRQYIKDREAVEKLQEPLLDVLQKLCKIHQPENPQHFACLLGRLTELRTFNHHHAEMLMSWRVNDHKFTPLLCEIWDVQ
Method: (§1) (2) The expression vector of FXR with point mutations at key binding sites is obtained. Quick-Change site-directed mutagenesis kit (Stratagene) is used for mutation, and the mutation reaction system is as follows: wild-type plasmid pCMX-FXR (50 ng) of 0.5 μl, mutation primer (100 μM) of 0.2 μl, pfu DNA polymerase (Invitrogen) (2 U) of 1 μl, 10 mM dNTPs of 1 μl, 10× PCR buffer of 5 μl, and ddH2O of 43 μl. PCR procedures are performed as follows: 94° C. for 2 min; 94° C. for 30 s, 55° C. for 1 min, 72° C. for 7 min, 15 cycles. 20 μl PCR product is digested with Dpn I […], followed by taking and transforming 2 μl digestion product into E. coli Trans 109 competent cells, ice bath for 30 min, and heat shock at 42° C. for 30 s. 250 μl of LB liquid medium without antibiotics is added, and preshaken at 225 rpm at 37° C. for 40 min, followed by taking 150 μl of products, spreading same on LB solid medium plates with ampicillin at 100 μg/ml and culturing them at 37° C. overnight. On the next day, the single colony is picked out and placed in 2 ml LB liquid medium containing ampicillin at 100 μg/ml, and cultured at 37° C. overnight. Plasmid extraction is performed on the shaken bacterial solution using Qiagen MiniPrep Plasmid Minipreparation Kit. The plasmid is identified by sequencing.

FXR H447F = target: T2, FXR H447F (Homo sapiens, UniProt Q96RI1, H461F); experiment: Reporter gene analysis with FXR point mutant H447F in COS-7 cells; type: cell-based; details: COS-7, EcRE reporter, vs wild-type FXR, FIG. 5
T2 construct: the expression plasmid expressing full-length FXR (wt) or with mutations at the corresponding sites; expressed in transfected cells; host or cells: COS-7
T2 sequence (Q96RI1 1-472 isoform Q96RI1-2 H447F): T1 sequence (Q96RI1 1-472 isoform Q96RI1-2 L287T) with T287L, H447F
Method: as §1

wild-type C57BL/6J mice = experiment: Mouse trial, wild-type mice fed with high-fat diet; details: 1.3 mg/kg i.p. daily, 14 days
Method: (§2) Wild-type C57BL/6J mice of 9-10 weeks old, and FXR gene deletion homozygous mice (FXR^−/−) and diabetes and obesity mouse model mice (KK-Ay) with the same background are used, fed with high-fat diet (Research Diets, D12492), with free access to water, in SPF grade animal room in experimental animal center, Xiamen University. […] Intraperitoneal injection is performed one time at 9 o'clock every morning, continued for 14 days, and the mice are measured for body weight and the food intake every two days. At the end of 14 days, the mice are provided with free access to water, and after being hungry for 6 h, the mouse body weights are measured, and the percentage of the final body weight relative to the initial body weight before the treatment of the injection trial indicates the change of mouse body weight. Then blood is sampled from the eye balls, and sera are obtained by separation. The components in serum are detected by the following kits respectively: sugar-oxidase method (Beijing Applygen); insulin (Crystal Chem. Inc., USA); total cholesterol and cholesterol in high and low density lipoprotein (Bioassay Systems, USA); triglyceride (Beijing Applygen and WAKO Chemicals Inc., Japan); free fatty acids (Bioassay Systems, USA); and aspartate aminotransferase and alanine aminotransferase (Biosino Bio-technology and Science Inc., Beijing, China). Mouse liver is taken, a part of which is fixed with paraformaldehyde, and embedded with paraffin, sectioned, and stained with hematoxylin and eosin, and a part of which is cryopreserved with liquid nitrogen for use in extracting RNA for measuring gene expression with fluorescence quantitative PCR.

[1] = test system: FXR gene deletion homozygous mice (FXR−/−); experiment: Mouse trial, FXR knockout mice fed with high-fat diet; type: in vivo; details: 1.3 mg/kg i.p. daily, 14 days
Method: as §2

KK-Ay mice = experiment: Mouse trial, KK-Ay diabetes and obesity model mice fed with high-fat diet; type: in vivo
Excerpt: In order to detect the efficacy of abamectin/avermectin, ivermectin and the derivative doramectin in the body of a diabetes and obesity mouse model, we choose diabetes and obesity mouse model mice, KK-Ay mice, as the experimental subject.

[2] = test system: FXR knockout mouse liver cells; experiment: LPS induced inflammatory gene expression in FXR knockout mouse liver cells; type: cell-based
Excerpt: Ivermectin and LPS are used to treat wild-type and FXR knockout mouse liver cells.

[3] = i.p. daily 14 days, ivermectin/derivatives 1.3 mg/kg, GW4064 30 mg/kg

CC[C@H](C)[C@H]1O[C@]2(CC[C@@H]1C)C[C@@H]1C[C@@H](C/C=C(\C)C(O[C@H]3C[C@H](OC)C(O[C@H]4C[C@H](OC)[C@@H](O)[C@H](C)O4)[C@H](C)O3)[C@@H](C)/C=C/C=C3\CO[C@@H]4[C@H](O)C(C)=CC(C(=O)O1)[C@]34O)O2 (stereo partly shown) [ivermectin]
transcriptional activity of FXR mutant L287T (FXR L287T): significantly increasing
transcriptional activity of FXR mutant H447F (FXR H447F): significantly increasing
activity of serum alanine aminotransferase (wild-type C57BL/6J mice; FIG. 11): does not affect the transaminase activity
activity of serum aspartate aminotransferase (wild-type C57BL/6J mice; FIG. 11): does not affect the transaminase activity
liver injury, liver section stained with hematoxylin and eosin (wild-type C57BL/6J mice; FIG. 12): produces no injury to liver cells
cholesterol level in high density lipoprotein (wild-type C57BL/6J mice; high-fat diet): significantly downregulated
cholesterol levels in low density and very low density lipoprotein (wild-type C57BL/6J mice; high-fat diet): downregulated
serum cholesterol level (wild-type C57BL/6J mice; high-fat diet): significantly decreases
serum glucose level (wild-type C57BL/6J mice; high-fat diet): significantly decreases
serum insulin level (wild-type C57BL/6J mice; high-fat diet): significantly decreases
serum triglyceride (Tg) level (wild-type C57BL/6J mice; high-fat diet): significantly decrease
serum cholesterol level [1]: not producing any significant change
serum glucose level [1]: not producing any significant change
serum insulin level [1]: does not produce any significant change
cholesterol in high density lipoprotein ([1]; FIG. 8): not affected
cholesterol in low density/very low density lipoprotein ([1]; FIG. 8): not affected
serum insulin level (KK-Ay mice; 1.3 mg/kg i.p. daily, 14 days): significantly decreases
serum saccharides (glucose) level (KK-Ay mice; 1.3 mg/kg i.p. daily, 14 days): significantly decreases
serum free fatty acids (KK-Ay mice; i.p. daily 14 days, ivermectin 1.3 mg/kg, GW4064 30 mg/kg): significantly decrease
serum cholesterol (KK-Ay mice; [3]): significantly decrease
serum triglycerides (KK-Ay mice; [3]): significantly decrease
expression of inflammatory factors induced by LPS [2]: no clear change

Source: patent publication US10052340B2 (XIAMEN UNIVERSITY, priority 2012, dated 2018)
